The results in this text go back to patent US9068194B2, “Increasing plant growth by modulating omega-amidase expression in plants” (Los Alamos National Security, LLC, priority 2010, dated 2015).

“And” between values parts separate entries of the source, which are not always exact repeats. Equal values may be shown once.

Data set [1] has as its system Ω-amidase in corn roots. Kind of data set: Treatment of sweet corn roots with ω-amidase inhibitor DON (hydroponic). The class given is in vivo. Here is the method:
(§1) HPLC Assay for 2-oxoglutaramate: HPLC was used to assay 2-oxoglutaramate, following a modification of Calderon et al., 1985, J Bacteriol 161(2): 807-809. Briefly, 2-oxoglutaramate was extracted from plant tissue in distilled de-ionized water acidified to less than pH 2.0 with HCl using a weight to volume ratio of 2:1. 2-Oxoglutaramate was detected and quantified by HPLC, using an ION-300 7.8 mm ID×30 cm L column, with a mobile phase in 0.01NH2SO4, a flow rate of approximately 0.2 ml/min, at 40° C. Injection volume is approximately 20 and retention time between about 38 and 39 minutes. Detection is achieved with 210 nm UV light. Authentic 2-oxoglutaramate was used to calibrate the assay.
(§2) Ω-amidase activity was determined using the 96-well plate assay as described in Krasnikov et al., 2009, Analytical Biochemistry 391: 144-150.
(§3) Columbia nutrient solution was utilized (Knight and Weissman, 1982, Plant Physiol. 70: 1683).
(§4) Plants were grown hydroponically at 24° C. using a 16 hour/day light and 8 hour/day dark photoperiod. Seeds were first germinated and seedlings were grown for 9 days, at which time the individual seedlings were suspended with their roots in the nutrient solution (600 ml of nutrient, pH 6.3) in an 800 ml beaker covered with aluminum foil, with a slit for the seedlings, to prevent algal growth. The beakers were aerated with air provided by a small pump and delivered into the solution through a glass Pasteur pipette. For the treatments, DON was added to the nutrient solution to a final concentration of 1 microgram per ml. Thus DON was supplied continuously to the treated seedlings. The controls were grown in the same nutrient solution without DON. The solutions were refreshed every third day. Plants were sacrificed and analyzed for fresh weight, ω-amidase activity, and 2-oxoglutaramate concentrations in leaf and root tissue 14 days after initiation of treatment.

Data set [2] has as its system Ω-amidase in bean roots. Kind of data set: Treatment of pole bean roots with ω-amidase inhibitor DON (hydroponic). The format is in vivo. Here is the method:
as §1, §2, §3, §4

The test system of data set [3] is Ω-amidase in corn leaves. In words: Treatment of corn leaves with ω-amidase inhibitor DON (foliar spray). The class given is in vivo. On the procedure: as §1, §2, §3
Plants were grown in sand at 24° C. using a 16 hour/day light and 8 hour/day dark photoperiod. Seeds were germinated in the sand and allowed to grow for 9-14 days after seedling emergence. Seedlings (1 per 3 inch pot) were provided nutrients daily. The top of each pot was covered with Saran plastic film, with a slit cut to allow the seedlings room to emerge, in order to prevent treatment solution from reaching the soil. Leaves were treated by spraying DON treatment/nutrient solution twice daily. The DON treatment/nutrient solution contained 1 microgram/ml DON, 50 micoliters/liter SILWET L77 (a surfactant) and 0.02 vol/vol % glycerol (a humectant) at pH 6.3, dissolved in nutrient solution. Control plants were sprayed daily with the same solution without DON. An airbrush was used to apply the solutions until drip. Plants were sacrificed and analyzed for fresh weight, ω-amidase activity, and 2-oxoglutaramate concentrations in leaf and root tissue 14 days after initiation of treatment.

The test system of data set [4] is GPT (glutamine phenylpyruvate transaminase), substrate glutamine. Kind of data set: Kinetic analysis of GPT substitution mutants expressed in E. coli. The format is biochemical, Arabidopsis. The conditions noted are these: enzyme expressed in E. coli. Here is the method: Maximal velocity was determined using the formula: Vmax=Kcat[E]tot. The apparent unimolecular rate constant kcat is also called turnover number and denotes the maximum number of enzymatic reactions catalyzed per second.
This mutant GPT enzyme may be expected to produce more product, the 2-oxoglutaramate, per unit time than the wild type GPT when the concentration of the substrate glutamine is present in millimolar or greater quantities, thus assuring that the […] is saturating.

The mark [5] stands for this setting: root treatment 1 microgram per ml DON, 14 days.
[6] abbreviates: bean, root treatment 1 microgram per ml DON, 14 days.
[7] abbreviates: leaf treatment with DON, average of treated plants.
Where [8] appears, read: leaves sprayed twice daily with 1 microgram/ml DON, 14 days (Table 17).

For the molecule `[N-]=[N+]=CC(=O)CC[C@H](N)C(=O)O` [DON, 6-diazo-5-oxo-nor-leucine], the ω-amidase activity entry is given as “None of the DON treated plants had detectable levels of ω-amidase activity” in data set [1] (continuous DON treatment of roots) and “None of the DON treated plants had detectable levels of ω-amidase activity” in data set [2] (bean, continuous DON treatment of roots). Besides, the growth result in data set [1] (continuous DON treatment of roots, versus untreated control plants) is given as “severely stunted growth”; in data set [2] (bean, continuous DON treatment of roots, versus untreated control plants) it was “severely stunted growth”. Besides, the figures for the “2-OGM ROOT” value in data set [1] (setting [5]), in data set [2] (setting [6]) and in data set [3] (setting [8]) were 2288 nmoles/gfwt, 1586 nmoles/gfwt and 126.8 nmoles/gfwt, respectively. The “LEAF/ROOT RATIO (2-OGM)” value came to 0.13 in data set [1] (setting [5]), 0.18 in data set [2] (setting [6]) and 5.0 in data set [3] (setting [8]). In addition, the “2-OGM LEAF” value in data set [1] (root treatment 1 microgram per ml DON, 14 days, 2-OGM = 2-oxoglutaramate) was 300 nmoles/gfwt; in data set [2] (setting [6]) it was 279 nmoles/gfwt; in data set [3] (setting [8]), 753.9 nmoles/gfwt. In addition, the “increase of 2-oxoglutaramate in roots” value in data set [1] (root treatment with DON, versus control) is recorded as “over 30 fold”; in data set [2] (beans, root treatment with DON, versus control) it was 15 fold. Also, the “% INCREASE IN FWT” value in data set [1] (roots in nutrient solution with 1 microgram per ml DON continuously, 14 days after initiation of treatment) stood at 174%; in data set [2] (bean, roots in nutrient solution with 1 microgram per ml DON continuously, 14 days after initiation of treatment), 198%. The “corn plant fresh weights versus untreated” value in data set [3] (leaf treatment with DON) is on record as “near doubling”. Also, the “increase of 2-oxoglutaramate in leaves over untreated plants” value in data set [3] (leaf treatment with DON) is “more than 7 fold”. Besides, in data set [3] (leaf treatment with DON), the “leaf ω-amidase activity relative to untreated plants” value was “about 50%”. In data set [3] (setting [7]), the “Amidase activity Leaf” value is recorded as 0.135 μmole/gfw/hr. Besides, in data set [3] (setting [7]), the “Whole Plant Fresh Wt, Average” value came to 21.4 g. Moreover, the “2-Oxoglutaramate Concentration” value in data set [3] (leaf treatment with DON, average of treated plants (Table 18)) is 838.8 nmoles/gfwt. Moreover, the “Whole Plant Fresh Wt” value in data set [3] (leaf treatment with DON, individual treated plants) is 20.9 g and 19.2 g and 24.3 g.

B1: GPT/F:V mutant: mutant GPT from the natural Arabidopsis GPT, substituting V (valine) for the F (phenylalanine) residue in NLGQGFP; expressed in E. coli (protein)
chain: MYLDINGVMIKQFSFKASLLPFSSNFRQSSAKIHRPIGATMTTVSTQNESTQKPVQVAKRLEKFKTTIFTQMSILAVKHGAINLGQGVPNFDGPDFVKEAAIQAIKDGKNQYARGYGIPQLNSAIAARFREDTGLVVDPEKEVTVTSGCTEAIAAAMLGLINPGDEVILFAPFYDSYEATLSMAGAKVKGITLRPPDFSIPLEELKAAVTNKTRAILMNTPHNPTGKMFTREELETIASLCIENDVLVFSDEVYDKLAFEMDHISIASLPGMYERTVTMNSLGKTFSLTGWKIGWAIAPPHLTWGVRQAHSYLTFATSTPAQWAAVAALKAPESYFKELKRDYNVKKETLVKGLKEVGFTVFPSSGTYFVVADHTPFGMENDVAFCEYLIEEVGVVAIPTSVFYLNPEEGKNLVRFAFCKDEETLRGAIERMKQKLKRKV
modifications: synthetic Arabidopsis glutamine phenylpyruvate transaminase (GPT) mutant GPT/FV with V substitution in conserved region at position 88
notes: mutant GPT from the natural Arabidopsis GPT, substituting V (valine) for the F (phenylalanine) residue in NLGQGFP; expressed in E. coli
In general, Km refers to the substrate concentration at which the rate is half of its maximum. In the case of B1, in data set [4], the Km amounted to 750 µM and the “increase of Vmax over the wild type” value is recorded as 20%. The Vmax in data set [4] (same amount of protein) is reported as 6.04.
